Assay results from PubChem BioAssay (NCI).
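Method: 48-hour compound exposure of cells in 96-well plates, five concentrations, linear interpolation of endpoints. TGI denotes the concentration required for complete inhibition of growth.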

How the values were obtained:
Test in all cases: NCI anticancer screen, dose series, 48 h
[1] = tested on: 786-0 renal
[2] = tested on: A498 renal
[3] = tested on: A549 NSCLC
[4] = tested on: BT-549 breast
[5] = tested on: CAKI-1 renal
[6] = tested on: CCRF-CEM leukemia
[7] = tested on: COLO 205 colon
[8] = tested on: DU-145 prostate
[9] = tested on: EKVX NSCLC
[10] = tested on: HCC-2998 colon
[11] = tested on: HCT-116 colon
[12] = tested on: HCT-15 colon
[13] = tested on: HOP-62 NSCLC
[14] = tested on: HT29 colon
[15] = tested on: IGROV1 ovarian
[16] = tested on: K-562 leukemia
[17] = tested on: KM12 colon
[18] = tested on: LOX IMVI melanoma
[19] = tested on: M14 melanoma
[20] = tested on: MALME-3M melanoma
[21] = tested on: MCF7 breast
[22] = tested on: MDA-MB-231 breast
[23] = tested on: MDA-MB-435
[24] = tested on: MDA-N
[25] = tested on: MOLT-4 leukemia
[26] = tested on: NCI-H226 lung
[27] = tested on: NCI-H23 lung
[28] = tested on: NCI-H460 lung
[29] = tested on: NCI-H522 lung
[30] = tested on: NCI/ADR-RES ovarian
[31] = tested on: OVCAR-4 ovarian
[32] = tested on: OVCAR-5 ovarian
[33] = tested on: OVCAR-8 ovarian
[34] = tested on: PC-3 prostate
[35] = tested on: RPMI-8226 leukemia
[36] = tested on: RXF 393 renal
[37] = tested on: SF-268 CNS
[38] = tested on: SF-295 CNS
[39] = tested on: SF-539 CNS
[40] = tested on: SK-MEL-2 melanoma
[41] = tested on: SK-MEL-28 melanoma
[42] = tested on: SK-MEL-5 melanoma
[43] = tested on: SK-OV-3 ovarian
[44] = tested on: SN12C renal
[45] = tested on: SNB-19 CNS
[46] = tested on: SNB-75 CNS
[47] = tested on: SW-620 colon
[48] = tested on: T-47D breast
[49] = tested on: TK-10 renal
[50] = tested on: U251 CNS
[51] = tested on: UACC-257 melanoma
[52] = tested on: UACC-62 melanoma
[53] = tested on: UO-31 renal
[54] = tested on: ACHN renal
[55] = tested on: HOP-92 NSCLC
[56] = tested on: OVCAR-3 ovarian
[57] = tested on: SR leukemia

`C=CC[C@]1(/C=N/O)CN(S(=O)(=O)CC[Si](C)(C)C)C[C@H]2CC=CC[C@H]21` gave a TGI [1] of 32.5 µM, a TGI [2] of 31.8 µM and a TGI [3] of 30.7 µM. The TGI [4] was 80.7 µM, the TGI [5] was 42.8 µM and the TGI [6] was 40.7 µM. For the same compound, the TGI [7] was 32.6 µM, the TGI [8] was 46.9 µM and the TGI [9] was 58.5 µM. The TGI [10] was 31.9 µM, the TGI [11] was 27.3 µM and the TGI [12] was greater than 100 µM. It also gave a TGI [13] of 39 µM, a TGI [14] of 30.8 µM and a TGI [15] of 34.8 µM. For the same compound, the TGI [16] was 67.5 µM, the TGI [17] was 51.5 µM and the TGI [18] was 40.4 µM. It also gave a TGI [19] of 45 µM, a TGI [20] of 40.4 µM and a TGI [21] of 39.6 µM. The TGI [22] was 44.2 µM, the TGI [23] was greater than 100 µM and the TGI [24] was 42.8 µM. The TGI [25] was 52.2 µM, the TGI [26] was 34.4 µM and the TGI [27] was greater than 100 µM. It also gave a TGI [28] of 38.5 µM, a TGI [29] of 38 µM and a TGI [30] greater than 100 µM. The TGI [31] was 34.1 µM, the TGI [32] was 44.2 µM and the TGI [33] was 67.3 µM. For the same compound, the TGI [34] was 51.7 µM, the TGI [35] was 31.8 µM and the TGI [36] was 29.6 µM. For the same compound, the TGI [37] was greater than 100 µM, the TGI [38] was 31 µM and the TGI [39] was 32.8 µM. For the same compound, the TGI [40] was 32.6 µM, the TGI [41] was 54.7 µM and the TGI [42] was greater than 100 µM. For the same compound, the TGI [43] was 64.5 µM, the TGI [44] was 30 µM and the TGI [45] was 42.3 µM. It also gave a TGI [46] of 54.2 µM, a TGI [47] of 34.7 µM and a TGI [48] greater than 100 µM. For the same compound, the TGI [49] was 36.8 µM, the TGI [50] was 32.2 µM and the TGI [51] was 60.6 µM. The TGI [52] was 64.9 µM and the TGI [53] was greater than 100 µM.
Compound `CNC1(c2cc3ccccc3s2)CCCCC1` has a TGI [1] of 39.7 µM, a TGI [2] greater than 100 µM and a TGI [3] greater than 100 µM. It also gave a TGI [54] greater than 100 µM, a TGI [4] greater than 100 µM and a TGI [5] greater than 100 µM. For the same compound, the TGI [7] was 41.9 µM, the TGI [8] was greater than 100 µM and the TGI [9] was 93.8 µM. For the same compound, the TGI [10] was 28.7 µM, the TGI [11] was greater than 100 µM and the TGI [12] was greater than 100 µM. The TGI [13] was greater than 100 µM, the TGI [55] was 61.6 µM and the TGI [14] was 67.8 µM. It also gave a TGI [15] of 84.6 µM, a TGI [16] greater than 100 µM and a TGI [17] of 43.1 µM. It also gave a TGI [18] of 40.9 µM, a TGI [19] of 35.7 µM and a TGI [21] of 90.5 µM. The TGI [22] was 71.8 µM, the TGI [23] was 36.6 µM and the TGI [24] was 39.9 µM. It also gave a TGI [25] greater than 100 µM, a TGI [26] of 91.3 µM and a TGI [27] greater than 100 µM. For the same compound, the TGI [28] was 35.4 µM, the TGI [29] was 29.1 µM and the TGI [30] was greater than 100 µM. The TGI [56] was greater than 100 µM, the TGI [31] was greater than 100 µM and the TGI [32] was 95.7 µM. The TGI [33] was greater than 100 µM, the TGI [34] was 55.5 µM and the TGI [36] was 67.1 µM. It also gave a TGI [37] of 42.8 µM, a TGI [38] greater than 100 µM and a TGI [39] of 46.3 µM. The TGI [42] was 36 µM, the TGI [43] was greater than 100 µM and the TGI [44] was greater than 100 µM. For the same compound, the TGI [45] was greater than 100 µM, the TGI [46] was 99.3 µM and the TGI [57] was 67.3 µM. It also gave a TGI [47] greater than 100 µM, a TGI [49] greater than 100 µM and a TGI [50] of 33.8 µM. The TGI [51] was 35.1 µM, the TGI [52] was 49 µM and the TGI [53] was greater than 100 µM.
